According to patent US20240132445A1, “PHENOL DERIVATIVE AND APPLICATION THEREOF IN MEDICAMENTS” (priority 2021, published 2024):
Like-named read-outs stand apart in the source and are kept apart here.

Columns and labels:
Beagle dogs = experiment: Hemodynamic effect study in conscious Beagle dogs (telemetry); assay type: in vivo; conditions: iv
Description: The experiment used an emka PACK 4G telemetry system to detect the effects of intravenous injection of control group 3 and compound 20 on electrocardiogram, blood pressure and body temperature in conscious Beagle dogs, providing reference information for evaluating the safety of clinical use.
Four Beagle dogs were subjected to crossover administration, with a vehicle control (5% DMSO+10% solutol+85% Saline), control group 3 (2 mg/kg), compound 20 (0.5 mg/kg) and compound 20 (1 mg/kg) for each intravenous injection, with an administration volume of 2 mL/kg. Observations were respectively conducted before administration and within 1 h after administration on the day of administration. Anal temperature was measured before administration and at 30 min, 1 h, 2 h and 3 h after administration during each administration period; and electrocardiogram parameters were continuously collected from 0.5 h before administration to 3 h after administration during each administration period. Blood pressure was collected at 15 min after collection was started, and was collected at 2 min, 5 min, 10 min, 20 min, 30 min, 1 h, 2 h and 3 h after administration. The electrocardiogram, blood pressure data, body temperature, and clinical observation results on the day of administration at various time points including before administration (at 30 min after collection was started) and at 2 min, 5 min, 10 min, 20 min, 30 min, 1 h, 2 h and 3 h after administration were analysed and evaluated.

GABAA (α1β2γ2) receptor = GABAA (α1β2γ2) receptor (Homo sapiens (Human), UniProt P14867+P18507+P47870); experiment: Whole-cell patch-clamp of GABAA (α1β2γ2) receptor current in stably expressing HEK293 cells; assay type: cell-based; conditions: allosteric regulation
Sequence of GABAA (α1β2γ2) receptor (P14867 28-456 limits assumed): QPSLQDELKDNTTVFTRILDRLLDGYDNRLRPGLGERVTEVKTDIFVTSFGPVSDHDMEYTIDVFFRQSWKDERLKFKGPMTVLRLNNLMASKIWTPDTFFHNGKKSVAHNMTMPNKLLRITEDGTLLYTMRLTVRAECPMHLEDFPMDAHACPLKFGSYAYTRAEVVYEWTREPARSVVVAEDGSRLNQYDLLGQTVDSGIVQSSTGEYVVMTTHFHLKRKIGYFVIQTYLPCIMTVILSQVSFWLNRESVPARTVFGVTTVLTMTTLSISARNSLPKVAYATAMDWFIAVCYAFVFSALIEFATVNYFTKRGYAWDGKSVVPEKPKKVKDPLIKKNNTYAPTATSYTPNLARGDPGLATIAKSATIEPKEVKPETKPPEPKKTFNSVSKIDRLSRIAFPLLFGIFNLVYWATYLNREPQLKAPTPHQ
Sequence of GABAA (α1β2γ2) receptor (P47870 26-512 limits assumed): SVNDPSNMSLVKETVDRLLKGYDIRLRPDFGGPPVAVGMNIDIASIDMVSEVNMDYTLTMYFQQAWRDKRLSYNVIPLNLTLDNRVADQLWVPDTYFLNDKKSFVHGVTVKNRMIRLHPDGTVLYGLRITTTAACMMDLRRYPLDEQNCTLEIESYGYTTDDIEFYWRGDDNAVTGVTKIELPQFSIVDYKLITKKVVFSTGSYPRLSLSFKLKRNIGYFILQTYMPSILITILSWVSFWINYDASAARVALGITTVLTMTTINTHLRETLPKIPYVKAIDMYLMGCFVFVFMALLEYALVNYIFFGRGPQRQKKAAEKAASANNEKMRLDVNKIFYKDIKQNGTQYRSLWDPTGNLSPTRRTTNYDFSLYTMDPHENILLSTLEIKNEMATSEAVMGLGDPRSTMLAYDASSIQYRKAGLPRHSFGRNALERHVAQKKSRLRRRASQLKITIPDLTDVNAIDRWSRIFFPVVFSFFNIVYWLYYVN
Sequence of GABAA (α1β2γ2) receptor (P18507 40-475 limits assumed): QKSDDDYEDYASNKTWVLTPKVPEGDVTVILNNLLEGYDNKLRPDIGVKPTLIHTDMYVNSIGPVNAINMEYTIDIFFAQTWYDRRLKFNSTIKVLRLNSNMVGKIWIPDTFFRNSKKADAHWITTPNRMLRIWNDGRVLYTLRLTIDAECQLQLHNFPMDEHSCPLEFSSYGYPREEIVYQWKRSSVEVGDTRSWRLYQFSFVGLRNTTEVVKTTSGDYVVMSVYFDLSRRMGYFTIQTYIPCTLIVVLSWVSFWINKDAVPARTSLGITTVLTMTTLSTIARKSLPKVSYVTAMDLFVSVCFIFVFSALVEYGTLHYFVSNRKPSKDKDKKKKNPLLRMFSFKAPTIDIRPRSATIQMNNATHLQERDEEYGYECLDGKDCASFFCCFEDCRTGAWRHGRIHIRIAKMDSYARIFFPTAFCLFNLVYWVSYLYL
Excerpt: Gamma-aminobutyric acid (GABA) was an important inhibitory amino acid neurotransmitter in the central nervous system, and functioned by binding to GABA receptors. The GABA receptors were divided into three subtypes: GABAA, GABAB and GABAC, among which the GABAA receptor was the most important. The GABAA receptor was an anion-selective ion channel that could enhance chloride ion permeability and thus reduce neuronal excitability. The GABAA receptor was involved in regulating general anesthesia and was also closely related to diseases such as neurological and psychiatric disorders, e.g., depression, insomnia, anxiety and epilepsy. […]
HEK293 cell lines stably expressing the GABAA (α1β2γ2) receptor were used. […] The voltage stimulus of GABA receptor current recorded by a whole-cell patch-clamp technique was as follows: when whole-cell sealing was formed, the cell membrane voltage was clamped at −70 mV. The peak value of current was recorded after sequentially spraying test compounds from low concentration to high concentration and 100 μM GABA onto the cell surface in a Gap-free mode. […] Then slow capacitance compensation was conducted, and the membrane capacitance (pF) and series resistance were recorded. […] Multiple cells were independently and repeatedly detected. […]

[1] = Pharmacokinetic study in Beagle dogs; assay type: in vivo; conditions: male, dog, plasma, iv, 0.5 mg/kg
Description: Six male Beagle dogs (6-10 kg) were randomized into 2 groups (n=3): control group 3 and compound 20. The […] were administered via intravenous injection at 0.5 mg/kg (control group 3) and 0.5 mg/kg (compound 20), respectively, with an administration volume of 1 mL/kg and a vehicle of 5% DMSO+10% solutol (HS15)+85% Saline. Blood samples were taken before administration and at 2 min, 5 min, 10 min, 20 min, 30 min, 1 h, 1.5 h, 2 h and 3 h after administration. Plasma samples were taken by centrifugation, and stored in a −80° C. refrigerator until LC-MS analysis to be tested. After sample processing, quantitative analysis of substances in plasma was conducted using LCMS/MS to detect the concentration of prototype compounds in the plasma. The plasma concentration/time curve obtained in this way was used to calculate pharmacokinetic parameters by a validated pharmacokinetic computer program.

in vivo [2] = assay type: in vivo, rats; conditions: both sexes, Sprague-Dawley, rat, in vivo, rats
Description: (§2) SD rats, half male and half female, were fasted with water available for 12 h, and were administered via intravenous injection at an administration volume of 10 mL/kg. Then the anesthesia induction time (the time period from drug administration to disappearance of the righting reflex), the anesthesia maintenance time (the time period from disappearance of the righting reflex to recovery of the righting reflex and revival) and the anesthesia recovery time (the time period from revival to complete recovery) were recorded. Indicators including the median effective dose (ED50), median lethal dose (LD50), therapeutic index (TI, i.e. LD50/ED50), anesthesia induction time, anesthesia maintenance time and maximum tolerated dose were used to evaluate the effect and safety of anesthesia.

SD rats = experiment: animal or person; assay type: in vivo; conditions: rats
Description: as §2

in vivo [3] = conditions: both, ICR, mouse, in vivo, iv
Description: (§1) SPF-grade ICR mice, each weighing 18-22 g, half male and half female, were used. A well-established mouse anesthesia model was used to study the general anesthesia effect of the compound of the present invention. The compounds were formulated with solvents of 10% DMSO, 15% solutol (HS15) and 75% saline to the desired concentration, for further use. After adapting to the experimental environment, the experimental animals were fasted with water available for 12 h, and were administered via intravenous injection at an administration volume of 10 mL/kg. Then the anesthesia induction time (the time period from drug administration to disappearance of the righting reflex) and the anesthesia maintenance time (the time period from disappearance of the righting reflex to recovery of the righting reflex) were recorded. Indicators including the median effective dose (ED50), median lethal dose (LD50), therapeutic index (TI, i.e. LD50/ED50), anesthesia induction time, anesthesia maintenance time and maximum tolerated dose were used to evaluate the effect and safety of anesthesia.

ICR mice = experiment: animal or person
Description: as §1

[4] = Pharmacokinetic study in rats; assay type: in vivo, SD rats; conditions: male, Sprague-Dawley, rat, plasma, iv, 1 mg/kg
Description: Twelve male SD rats (200-300 g) were randomized into 2 groups (n=6): control group 3 and compound 20. The rats were administered via intravenous injection at 1 mg/kg (control group 3) and 1 mg/kg (compound 20), respectively, with an administration volume of 5 mL/kg and a vehicle of 5% DMSO+10% solutol (HS15)+85% Saline. Blood samples were taken before administration and at 2 min, 4 min, 8 min, 12 min, 15 min, 30 min, 1 h, 1.5 h and 2 h after administration. Plasma samples were taken by centrifugation, and stored in a −80° C. refrigerator until LC-MS analysis to be tested. After sample processing, quantitative analysis of substances in plasma was conducted using LCMS/MS to detect the concentration of prototype compounds in the plasma. The plasma concentration/time curve obtained in this way was used to calculate pharmacokinetic parameters by a validated pharmacokinetic computer program.

CCS(=O)(=O)[C@@H](C)c1cccc([C@H](C)C2CC2)c1O [Compound 20, 2-((R)-1-cyclopropylethyl)-6-((S)-1-(ethylsulfonyl)ethyl)phenol]
effect on the heart rate, blood pressure and body temperature (Beagle dogs; 0.5 and 1 mg/kg): little effect | change in heart rate after administration (Beagle dogs; control group 3 2 mg/kg, compound 20 0.5 and 1 mg/kg, within 1 h, recovery after 1 h): slow down in heart rate | EC50 (GABAA (α1β2γ2) receptor; HEK293, -70 mV, n=3, read-out: EC50): 1560 nM | EC50 (GABAA (α1β2γ2) receptor; HEK293, text restatement, read-out: semi-activated concentration (EC50)): 1560 nM | AUC(0-t) [1]: 128 ng·h/mL | half-life [1]: 47.4 min | LD50 (in vivo [2]; intravenous injection, read-out: LD50): 3.2 mg/kg | MTD (in vivo [2]; iv, maximum tolerated dose, read-out: MTD): 2.2 mg/kg | ED50 (SD rats; Rattus norvegicus, intravenous injection, loss of righting reflex, read-out: ED50): 0.5 mg/kg | TI (SD rats; LD50/ED50): 6.4 | Anesthesia induction time (SD rats; iv, administration to disappearance of righting reflex): 10 s | Anesthesia maintenance time (SD rats; iv, disappearance to recovery of righting reflex): 624 s | LD50 (in vivo [3]): 3.5 mg/kg | MTD (in vivo [3]): 1.8 mg/kg | ED50 (ICR mice; Mus musculus, iv): 0.6 mg/kg | TI (ICR mice; mice, LD50/ED50): 5.8 | Anesthesia induction time (ICR mice; mice, iv, administration to disappearance of righting reflex): 2 s | Anesthesia maintenance time (ICR mice; mice, iv, disappearance to recovery of righting reflex): 573 s | AUC(0-t) [4]: 196 ng·h/mL | half-life [4]: 19.8 min
